Laboratory results reported in PMC4156053, “A Conserved Mitochondrial ATP-binding Cassette Transporter Exports Glutathione Polysulfide for Cytosolic Metal Cofactor Assembly” (The Journal of Biological Chemistry, 2014).

Molecular target: T1, ATM3 (Arabidopsis thaliana, UniProt Q9LVM1)
T1 construct: gene ABCB25; inside-out membrane vesicles or Ni-NTA purified in detergent; half-transporter that dimerizes
Assay: ATPase activity, malachite green Pi release
Format: biochemical
Settings: 5 mM Na-ATP, 5 mM MgCl2, 0.1 M HEPES-KOH pH 7.0, 30 °C

T1 sequence (Q9LVM1 61-728): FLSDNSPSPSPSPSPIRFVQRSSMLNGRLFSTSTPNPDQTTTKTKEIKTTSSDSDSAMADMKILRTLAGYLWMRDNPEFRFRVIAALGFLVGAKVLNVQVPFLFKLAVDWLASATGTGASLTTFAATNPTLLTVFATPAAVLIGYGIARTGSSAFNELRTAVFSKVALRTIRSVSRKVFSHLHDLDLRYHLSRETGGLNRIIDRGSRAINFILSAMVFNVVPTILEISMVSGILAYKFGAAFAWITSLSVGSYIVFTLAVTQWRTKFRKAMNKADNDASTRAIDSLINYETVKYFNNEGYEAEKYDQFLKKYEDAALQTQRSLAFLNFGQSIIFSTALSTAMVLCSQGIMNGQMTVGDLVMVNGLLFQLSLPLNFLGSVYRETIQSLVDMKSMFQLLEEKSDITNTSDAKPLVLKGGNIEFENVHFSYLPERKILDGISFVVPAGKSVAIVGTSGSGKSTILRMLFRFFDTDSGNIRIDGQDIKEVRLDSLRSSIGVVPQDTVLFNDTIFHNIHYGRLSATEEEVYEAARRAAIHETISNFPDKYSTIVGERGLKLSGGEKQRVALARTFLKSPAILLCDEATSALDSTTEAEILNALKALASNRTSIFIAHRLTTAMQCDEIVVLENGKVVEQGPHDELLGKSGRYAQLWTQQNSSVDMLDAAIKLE

Nc1ncnc2c1ncn2[C@@H]1O[C@H](COP(=O)(O)OP(=O)(O)OP(=O)(O)O)[C@@H](O)[C@H]1O [ATP]
ATPase activity, malachite green Pi release: retained their ATPase activity in detergent solution
